Experiments:
[1] = system: male heterosexual patients with sexual problems (erection problems and reduced sexual arousal); assay: Self-rated sexual arousal (scale 1 to 10) before and during sexual activity, sublingual androgen(s) followed by Viagra; assay type: in vivo, human; details: history of the two male patients before the alternative treatments
Protocol: (§1) The first example concerns two male heterosexual patients with sexual problems (erection problems and reduced sexual arousal). […] This prompted two alternative forms of treatment. The first treatment involved taking 5 mg sublingual testosterone (in a solution consisting of alcohol, denaturalized water, testosterone and cyclodextrins) followed 2.5 hours later by taking Viagra (sildenafil 50 mg). The second treatment consisted of simultaneously taking 5 mg sublingual testosterone and 5 mg sublingual dihydrotestosterone (DHT) (in a solution consisting of alcohol, denaturalized water, DHT and cyclodextrins), followed after 2.5 hours by taking Viagra (50 mg). The testosterone and DHT solutions were prepared by a pharmacist on the request of a general practitioner. On both treatment days, patients were asked to engage in sexual activity between 1 and 1.5 hours after taking Viagra. […] Patients were also asked to answer some questions about their sexual arousal immediately before and within an hour after sexual activity.

[2] = cited from earlier work
[3] = sublingually with cyclodextrins; women about 0.1-2 mg, men about 0.5-20 mg; cited from earlier work
[4] = Plasma total and free testosterone after sublingual androgen intake in two male patients; details: blood plasma 15 minutes after sublingual intake, 5 mg T, or 5 mg T + 5 mg DHT; for Free T: measured, not calculated; for concentration at 15 min: human, plasma, other: sublingual, 5 mg, Total T
Protocol: as §1
The table below describes the effects of the different treatments on ‘total testosterone’ and ‘free testosterone (i.e. measured, not calculated)’ for both patients: […]

CCCc1nn(C)c2c(=O)[nH]c(-c3cc(S(=O)(=O)N4CCN(C)CC4)ccc3OCC)nc12 [Viagra, sildenafil]
effect of the usual treatments on the sexual problems [1]: little or no effect

CC[C@H](C)[C@@H]1NC(=O)[C@H](Cc2ccc(O)cc2)NC(=O)[C@@H](N)CSSC[C@@H](C(=O)N2CCC[C@H]2C(=O)N[C@@H](CC(C)C)C(=O)NCC(N)=O)NC(=O)[C@H](CC(N)=O)NC(=O)[C@H](CCC(N)=O)NC1=O [oxytocin]
time of behavioral and neural effects after administration ([2]; dosages between 20-50 IE): 15 to 90 min
T-max of oxytocin levels in the blood circulation ([2]; intranasal administration): approximately 15 minutes
return of oxytocin levels to baseline ([2]; intranasal administration): approximately 90 minutes

C[C@]12CC[C@H]3[C@@H](CCC4=CC(=O)CC[C@@]43C)[C@@H]1CC[C@@H]2O [T, 17-β-hydroxyandrost-4-en-3-one]
time to pharmacological peak in testosterone [3]: about 15 minutes
Free T ([4]; Patient 1): 440 pml/L
Free T ([4]; Patient 2): 1030 pml/L
concentration at 15 min ([4]; Patient 1): 28.7 nM
concentration at 15 min ([4]; Patient 2): 43.9 nM
